Patent US11401286B2 (Tetra Discovery Partners, LLC, priority 2012, dated 2022)
Structures can show the parent of a compound that is named as a salt.

Target: PDE4D7 (Homo sapiens (Human), UniProt Q08499)
Settings: read-out: PDE4D7 IC50
Description: Here, a kinetic assay of cAMP hydrolysis by purified PDE4 was used, in which PDE4 activity was measured by coupling the formation of the PDE4 reaction product, 5′-adenosine monophosphate, to the oxidation of reduced nicotinamide adenine dinucleotide (NADH) by the use of three coupling enzymes (myokinase, pyruvate kinase and lactate dehydrogenase), which allows fluorescent determination of reaction rates. Assays are performed in 96-well plates in a total volume of 200 μl/well. Compounds are dissolved in dimethylsulfoxide (DMSO) and added to plates in a volume of 10 μl followed by addition of 165 μl of assay mix. Plates are pre-incubated at 25° C. for 15 min and the reactions are initiated by the addition of 25 μl of cAMP followed by thorough mixing. […] Initial rates (slopes) are determined from linear portions of the progress curves. Final concentrations of assay components are as follows: 50 mM Tris, pH 8, 10 mM MgCl2, 50 mM KCl, 2% DMSO, 5 mM tris(2-carboxyethyl)phosphine (TCEP), 0.4 mM phosphenolpyruvate (PEP), 0.01 mM NADH, 0.04 mM adenosine triphosphate (ATP), 0.004 mM cAMP, 7.5 units myokinase from yeast, 1.6 units pyruvate kinase, 2 units lactate dehydrogenase, and either 0.5 nM human PDE4D7 or 10 nM human PDE4B1. All data are percent normalized relative to controls and are presented as percent inhibition. […] Human PDE4D7 contained a mutation of serine 54 to aspartic acid to mimic activation by cAMP-dependent protein kinase A (PKA).
PDE4D7*=PDE4D7 containing a UCR1 activating mutation S54D.

Chain of PDE4D7 (Q08499 other isoform, or with tags, fused parts or gaps): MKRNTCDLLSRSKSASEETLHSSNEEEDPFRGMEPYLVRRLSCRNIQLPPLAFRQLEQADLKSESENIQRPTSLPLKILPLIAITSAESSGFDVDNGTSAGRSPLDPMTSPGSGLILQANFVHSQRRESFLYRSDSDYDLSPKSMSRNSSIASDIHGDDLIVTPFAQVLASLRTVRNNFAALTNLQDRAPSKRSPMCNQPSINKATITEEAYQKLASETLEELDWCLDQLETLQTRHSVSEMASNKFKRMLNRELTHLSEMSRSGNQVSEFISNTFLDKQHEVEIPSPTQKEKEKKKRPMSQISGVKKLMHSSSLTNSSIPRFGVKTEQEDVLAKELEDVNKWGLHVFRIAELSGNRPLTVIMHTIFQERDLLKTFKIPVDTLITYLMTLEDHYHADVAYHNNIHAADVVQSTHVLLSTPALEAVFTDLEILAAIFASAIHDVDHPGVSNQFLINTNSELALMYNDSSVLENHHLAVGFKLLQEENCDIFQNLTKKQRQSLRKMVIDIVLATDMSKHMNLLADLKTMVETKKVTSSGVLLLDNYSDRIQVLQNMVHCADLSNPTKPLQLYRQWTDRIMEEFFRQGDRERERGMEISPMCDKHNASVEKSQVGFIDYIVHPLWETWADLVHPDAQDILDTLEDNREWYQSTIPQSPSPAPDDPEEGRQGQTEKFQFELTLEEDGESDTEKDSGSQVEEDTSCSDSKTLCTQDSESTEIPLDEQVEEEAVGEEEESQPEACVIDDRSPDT

Structure (SMILES) | IC50
CN1CCN(c2cc(Nc3ccc(CC(N)=O)cc3)c3c(n2)CCC3)CC1 [Example 253, 2-(4-((2-(4-methylpiperazin-1-yl)-6,7-dihydro-5H-cyclopenta[b]pyridin-4-yl)amino)phenyl)acetamide hydrochloride] | > 1000 nM
C[C@@H]1CN(c2cc(Nc3ccc(CC(N)=O)cc3)c3c(n2)CCC3)CCN1 [Example 255, (R)-2-(4-((2-(3-Methylpiperazin-1-yl)-6,7-dihydro-5H-cyclopenta[b]pyridin-4-yl)amino)phenyl)acetamide hydrochloride] | > 1000 nM

Same assay, conditions: read-out: PDE4D7 IC50; PDE4D7 without asterisk

Structure (SMILES) | IC50
CCc1cc(Nc2ccc(CC(N)=O)cc2)nc(C2CCCC2)n1 [Example 221, 2-(4-((2-Cyclopentyl-6-ethylpyrimidin-4-yl)amino)phenyl)acetamide] | < 1000 nM
CCc1cc(Nc2ccc(CCO)cc2)nc(C2CCCC2)n1 [Example 222, 2-(4-((2-Cyclopentyl-6-ethylpyrimidin-4-yl)amino)phenyl)ethanol] | < 1000 nM
CCc1cc(Cc2ccc(CC(=O)OC)cc2)nc(C2CCCC2)n1 [Example 223, Methyl 2-(4-((2-cyclopentyl-6-ethylpyrimidin-4-yl)methyl)phenyl)acetate] | > 1000 nM
CCc1cc(Cc2ccc(CC(=O)O)cc2)nc(C2CCCC2)n1 [Example 224, 2-(4-((2-Cyclopentyl-6-ethylpyrimidin-4-yl)methyl)phenyl)acetic acid] | > 1000 nM
CCc1cc(Cc2ccc(CCO)cc2)nc(C2CCCC2)n1 [Example 225, 2-(4-((2-Cyclopentyl-6-ethylpyrimidin-4-yl)methyl)phenyl)ethanol] | > 1000 nM
CCc1cc(Cc2ccc(CC(N)=O)cc2)nc(C2CCCC2)n1 [Example 226, 2-(4-((2-Cyclopentyl-6-ethylpyrimidin-4-yl)methyl)phenyl)acetamide] | < 1000 nM
OCCc1ccc(Nc2cc(C(F)(F)F)nc(C3CCCC3)n2)cc1 [Example 227, 2-(4-((2-Cyclopentyl-6-(trifluoromethyl)pyrimidin-4-yl)amino)phenyl)ethanol] | < 1000 nM
NC(=O)Cc1ccc(Nc2cc(C(F)(F)F)nc(C3CCCC3)n2)cc1 [Example 228, 2-(4-((2-Cyclopentyl-6-(trifluoromethyl)pyrimidin-4-yl)amino)phenyl)acetamide] | < 1000 nM
O=C(O)Cc1ccc(Cc2cc(C(F)(F)F)nc(C3CCCC3)n2)cc1 [Example 229, 2-(4-((2-Cyclopentyl-6-(trifluoromethyl)pyrimidin-4-yl)methyl)phenyl)acetic acid] | > 1000 nM
NC(=O)Cc1ccc(Cc2cc(C(F)(F)F)nc(C3CCCC3)n2)cc1 [Example 230, 2-(4-((2-Cyclopentyl-6-(trifluoromethyl)pyrimidin-4-yl)methyl)phenyl)acetamide] | > 1000 nM
OCCc1ccc(Cc2cc(C(F)(F)F)nc(C3CCCC3)n2)cc1 [Example 231, 2-(4-((2-Cyclopentyl-6-(trifluoromethyl)pyrimidin-4-yl)methyl)phenyl)ethanol] | > 1000 nM
NC(=O)Cc1ccc(Nc2nc(OC3CCCC3)nc3c2CCC3)cc1 [Example 232, 2-(4-((2-(Cyclopentyloxy)-6,7-dihydro-5H-cyclopenta[d]pyrimidin-4-yl)amino)phenyl)acetamide] | > 1000 nM
OCCc1ccc(Nc2nc(OC3CCCC3)nc3c2CCC3)cc1 [Example 233, 2 2-(4-((2-(Cyclopentyloxy)-6,7-dihydro-5H-cyclopenta[d]pyrimidin-4-yl)amino)phenyl)ethanol] | > 1000 nM
NC(=O)Cc1ccc(Nc2nc(-c3cccc(Cl)c3)nc3c2CCCC3)cc1 [Example 234, 2-(4-((2-(3-Chlorophenyl)-5,6,7,8-tetrahydroquinazolin-4-yl)amino)phenyl)acetamide] | < 1000 nM
OCCc1ccc(Nc2nc(-c3cccc(Cl)c3)nc3c2CCCC3)cc1 [Example 235, 2-(4-((2-(3-Chlorophenyl)-5,6,7,8-tetrahydroquinazolin-4-yl)amino)phenyl)ethanol] | < 1000 nM
NC(=O)Cc1ccc(Nc2cc(N3CCCC3)nc3c2CCC3)cc1 [Example 236, 2-(4-((2-(Pyrrolidin-1-yl)-6,7-dihydro-5H-cyclopenta[b]pyridin-4-yl)amino)phenyl)acetamide hydrochloride] | > 1000 nM
COC(=O)Cc1ccc(Nc2cc(N3CCCC3)nc3c2CCC3)cc1 [Example 237, Methyl 2-(4-((2-(pyrrolidin-1-yl)-6,7-dihydro-5H-cyclopenta[b]pyridin-4-yl)amino)phenyl)acetate hydrochloride] | > 1000 nM
OCCc1ccc(Nc2cc(N3CCNCC3)nc3c2CCC3)cc1 [Example 238, 2-(4-((2-(Piperazin-1-yl)-6,7-dihydro-5H-cyclopenta[b]pyridin-4-yl)amino)phenyl)ethanol hydrochloride] | > 1000 nM
OCCc1ccc(Nc2cc(-c3ccco3)nc3c2CCC3)cc1 [Example 239, 2-(4-((2-(furan-2-yl)-6,7-dihydro-5H-cyclopenta[b]pyridin-4-yl)amino)phenyl)ethanol hydrochloride] | > 1000 nM
NC(=O)Cc1ccc(Nc2cc(-c3ccco3)nc3c2CCC3)cc1 [Example 240, 2-(4-((2-(Furan-2-yl)-6,7-dihydro-5H-cyclopenta[b]pyridin-4-yl)amino)phenyl)acetamide hydrochloride] | > 1000 nM

Structure (SMILES) | IC50
OCCc1ccc(Nc2cc(-c3ncco3)nc3c2CCC3)cc1 [Example 241, 2-(4-((2-(Oxazol-2-yl)-6,7-dihydro-5H-cyclopenta[b]pyridin-4-yl)amino)phenyl)ethanol] | > 1000 nM
NC(=O)Cc1ccc(Nc2cc(-c3ncco3)nc3c2CCC3)cc1 [Example 242, 2-(4-((2-(Oxazol-2-yl)-6,7-dihydro-5H-cyclopenta[b]pyridin-4-yl)amino)phenyl)acetamide] | > 1000 nM
OCCc1ccc(Nc2cc(-c3ccsc3)nc3c2CCC3)cc1 [Example 243, 2 2-(4-((2-(Thiophen-3-yl)-6,7-dihydro-5H-cyclopenta[b]pyridin-4-yl)amino)phenyl)ethanol] | > 1000 nM
NC(=O)Cc1ccc(Nc2cc(-c3ccsc3)nc3c2CCC3)cc1 [Example 244, 2-(4-((2-(Thiophen-3-yl)-6,7-dihydro-5H-cyclopenta[b]pyridin-4-yl)amino)phenyl)acetamide] | > 1000 nM
NC(=O)Cc1ccc(Nc2cc(-c3ccc(Cl)s3)nc3c2CCC3)cc1 [Example 245, 2-(4-((2-(5-Chlorothiophen-2-yl)-6,7-dihydro-5H-cyclopenta[b]pyridin-4-yl)amino)phenyl)acetamide hydrochloride] | > 1000 nM
NC(=O)Cc1ccc(Nc2cc(C3=CCCC3)nc3c2CCC3)cc1 [Example 246, 2-(4-((2-(Cyclopent-1-en-1-yl)-6,7-dihydro-5H-cyclopenta[b]pyridin-4-yl)amino)phenyl)acetamide hydrochloride] | > 1000 nM
OCCc1ccc(Nc2cc(C3=CCCC3)nc3c2CCC3)cc1 [Example 248, 2-(4-((2-(Cyclopent-1-en-1-yl)-6,7-dihydro-5H-cyclopenta[b]pyridin-4-yl)amino)phenyl)ethanol hydrochloride] | > 1000 nM
OCCc1ccc(Nc2cc(C3CCCC3)nc3c2CCC3)cc1 [Example 249, 2-(4-((2-cyclopentyl-6,7-dihydro-5H-cyclopenta[b]pyridin-4-yl)amino)phenyl)ethanol hydrochloride] | > 1000 nM
NC(=O)Cc1ccc(Nc2cc(C3CCCCC3)nc3c2CCC3)cc1 [Example 250, 2-(4-((2-Cyclohexyl-6,7-dihydro-5H-cyclopenta[b]pyridin-4-yl)amino)phenyl)acetamide hydrochloride] | > 1000 nM
OCCc1ccc(Nc2cc(C3CCCCC3)nc3c2CCC3)cc1 [Example 251, 2-(4-((2-cyclohexyl-6,7-dihydro-5H-cyclopenta[b]pyridin-4-yl)amino)phenyl)ethanol hydrochloride] | > 1000 nM
NC(=O)Cc1ccc(Nc2cc(OC3CCCC3)nc3c2CCC3)cc1 [Example 256, 2-(4-((2-(Cyclopentyloxy)-6,7-dihydro-5H-cyclopenta[b]pyridin-4-yl)amino)phenyl)acetamide hydrochloride] | > 1000 nM
OCCc1ccc(Nc2cc(OC3CCCC3)nc3c2CCC3)cc1 [Example 257, 2-(4-((2-(Cyclopentyloxy)-6,7-dihydro-5H-cyclopenta[b]pyridin-4-yl)amino)phenyl)ethanol hydrochloride] | > 1000 nM
NC(=O)Cc1ccc(Nc2cc(SC3CCCC3)nc3c2CCC3)cc1 [Example 258, 2-(4-((2-(Cyclopentylthio)-6,7-dihydro-5H-cyclopenta[b]pyridin-4-yl)amino)phenyl)acetamide] | > 1000 nM
NC(=O)Cc1ccc(Nc2cc(S(=O)(=O)C3CCCC3)nc3c2CCC3)cc1 [Example 259, 2-(4-((2-(Cyclopentylsulfonyl)-6,7-dihydro-5H-cyclopenta[b]pyridin-4-yl)amino)phenyl)acetamide] | > 1000 nM
CC(C)Oc1cc(Nc2ccc(CCO)cc2)c2c(n1)CCC2 [Example 260, 2-(4-((2-Isopropoxy-6,7-dihydro-5H-cyclopenta[b]pyridin-4-yl)amino)phenyl)ethanol hydrochloride] | > 1000 nM
CC(C)Oc1cc(Nc2ccc(CC(N)=O)cc2)c2c(n1)CCC2 [Example 261, 2-(4-((2-Isopropoxy-6,7-dihydro-5H-cyclopenta[b]pyridin-4-yl)amino)phenyl)acetamide hydrochloride] | > 1000 nM
NC(=O)Cc1ccc(C(O)c2cc(-c3cccc(Cl)c3)nc3c2CCC3)cc1 (centres unmarked) [Example 262, 2-(4-((2-(3-Chlorophenyl)-6,7-dihydro-5H-cyclopenta[b]pyridin-4-yl)(hydroxy)methyl)phenyl)acetamide hydrochloride] | > 1000 nM
OCCc1ccc(C(O)c2cc(-c3cccc(Cl)c3)nc3c2CCC3)cc1 (centres unmarked) [Example 263, 2-(4-((2-(3-Chlorophenyl)-6,7-dihydro-5H-cyclopenta[b]pyridin-4-yl)(hydroxy)methyl)phenyl)ethanol] | > 1000 nM
CCc1nc(Nc2ccc(CCO)cc2)cc(-c2cccc(Cl)c2)n1 [Example 264, 2-(4-((6-(3-Chlorophenyl)-2-ethylpyrimidin-4-yl)amino)phenyl)ethanol] | < 1000 nM
